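The compound was tested at five concentrations on cells cultured in 96-well plates, with a 48-hour exposure period. TGI marks complete inhibition of growth.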
How the values were obtained:
Experiment in all cases: DTP human tumour cell line panel, 48 h
CCRF-CEM leukemia = test system: CCRF-CEM leukemia
COLO 205 colon = test system: COLO 205 colon
HCC-2998 colon = test system: HCC-2998 colon
HL-60(TB) leukemia = test system: HL-60(TB) leukemia
HOP-92 NSCLC = test system: HOP-92 NSCLC
IGROV1 ovarian = test system: IGROV1 ovarian
K-562 leukemia = test system: K-562 leukemia
LOX IMVI melanoma = test system: LOX IMVI melanoma
M14 melanoma = test system: M14 melanoma
MCF7 breast = test system: MCF7 breast
NCI-H23 lung = test system: NCI-H23 lung
NCI/ADR-RES ovarian = test system: NCI/ADR-RES ovarian
SF-539 CNS = test system: SF-539 CNS
SK-MEL-2 melanoma = test system: SK-MEL-2 melanoma
SK-MEL-28 melanoma = test system: SK-MEL-28 melanoma
SR leukemia = test system: SR leukemia
T-47D breast = test system: T-47D breast
UO-31 renal = test system: UO-31 renal

SMILES | TGI (CCRF-CEM leukemia) [µM] | TGI (COLO 205 colon) [µM] | TGI (HCC-2998 colon) [µM] | TGI (HL-60(TB) leukemia) [µM] | TGI (HOP-92 NSCLC) [µM] | TGI (IGROV1 ovarian) [µM] | TGI (K-562 leukemia) [µM] | TGI (LOX IMVI melanoma) [µM] | TGI (M14 melanoma) [µM] | TGI (MCF7 breast) [µM] | TGI (NCI-H23 lung) [µM] | TGI (NCI/ADR-RES ovarian) [µM] | TGI (SF-539 CNS) [µM] | TGI (SK-MEL-2 melanoma) [µM] | TGI (SK-MEL-28 melanoma) [µM] | TGI (SR leukemia) [µM] | TGI (T-47D breast) [µM] | TGI (UO-31 renal) [µM]
N#Cc1cc([N+](=O)[O-])ccc1NC(=O)/C(=N\NC(=O)c1ccncc1)C(c1cnc2ccc([N+](=O)[O-])cc2n1)[N+](=O)[O-] (stereo unspecified) | 25.6 | 17.9 | 22.2 | 10.6 | 22.6 | 14.2 | 6.4 | 2.23 | 3.23 | 3.37 | 2.65 | 37 | 3.63 | 3.73 | 4.81 | 46.8 | 18.4 | 7.6
COC(=O)C1=C(OC(=O)/C(=C/c2ccccc2)c2ccc(Cl)cc2)C(C(=O)OC)[C@@]2(O)[C@@H](C(=O)OC)[C@H](C)C[C@@H]1[C@@H]2C(=O)OC (stereo partly specified) | > 100 | > 100 | > 100 | > 100 | > 100 | > 100 | > 100 | > 100 | > 100 | > 100 | > 100 | > 100 | > 100 | > 100 | > 100 | > 100 | > 100 | > 100
COC(=O)C(C)(C)[C@@H]1OC(=O)N(S(=O)(=O)c2c(C)cc(C)cc2C)[C@H]1C(C)C | > 100 | > 100 | > 100 | 84.5 | 98.2 | > 100 | > 100 | > 100 | > 100 | > 100 | > 100 | > 100 | > 100 | > 100 | > 100 | > 100 | > 100 | > 100
Cc1occc1C(=S)Nc1ccc(Cl)c(/C=N/OC(C)(C)C)c1 | 53.4 | 34.1 | 34.2 | 51.5 | 26.5 | > 56.3 | > 100 | 29.2 | 40.9 | 42.9 | 34.4 | 32.7 | > 100 | 39.5 | 34.4 | 35.6 | 42.6 | 27
COc1cc2cc(C(=O)Nc3cc4n(n3)-c3ccccc3C4)[nH]c2c(OC)c1OC | 3.42 | 9.45 | 21 | 6.1 | 16.6 | 9.79 | 14.9 | 12.7 | 6.86 | 14.1 | 10.5 | 3.86 | 17.8 | 8.39 | 9.66 | 11.5 | 2.39 | 6.8
Cc1ccc([N+](=O)[O-])cc1S(=O)(=O)Nc1ccc(C2=NOC(c3cccs3)C2)cc1 (stereo unspecified) | 50.2 | > 100 | 21.9 | 25.7 | 57 | 30 | 43.6 | 23.6 | 20.8 | 23.4 | 73.4 | 41.1 | 56.5 | 28.3 | > 100 | 11.5 | 50.5 | 21.9
CC(=O)OCC1OC(n2c3c(cc(C#N)c2=S)CCC3)C(OC(C)=O)C(OC(C)=O)C1OC(C)=O (stereo unspecified) | > 100 | > 100 | > 100 | > 100 | > 100 | > 100 | > 100 | > 100 | > 100 | > 100 | > 100 | > 100 | > 100 | > 100 | > 100 | > 100 | > 100 | > 100
C[C@]12CC[C@H]3[C@@H](CC=C4C[C@@H](O)CC[C@@]43C)[C@@H]1C/C(=C/c1ccccc1)[C@@H]2O | > 100 | 98.9 | > 60.3 | > 100 | > 69.6 | 43.9 | > 100 | > 50.2 | > 77.8 | > 68.2 | > 100 | > 89.1 | > 86.2 | 57.9 | > 91.2 | > 100 | > 59.1 | > 62
COC(=O)c1ccccc1NC(=NC1CCCCCC1)NS(=O)(=O)c1ccc(C)cc1 | > 100 | > 100 | > 100 | > 100 | > 100 | > 100 | > 100 | > 100 | > 100 | > 100 | > 100 | > 100 | > 100 | > 100 | > 100 | > 100 | > 100 | > 100
CCN(CC)C1CCC(C2c3cc4c(cc3OC(N3CCOCC3)C2C)OCO4)CC1 (stereo unspecified) | > 100 | > 100 | 40.3 | 89.8 | > 100 | > 100 | > 100 | > 100 | > 69.3 | > 84.1 | > 100 | > 83.1 | 57 | 42.2 | > 100 | > 100 | > 96.7 | > 100
CN(C)CCCNc1ncnc2c1ncn2C1OC(CO)C(O)C1O (stereo unspecified) | > 100 | > 100 | > 100 | > 100 | > 100 | > 100 | > 100 | > 100 | > 100 | > 100 | > 100 | > 100 | > 100 | > 100 | > 100 | > 100 | > 100 | > 100
CCOC(=O)C1(N)CCc2[nH][nH]c(=O)c2C1 (stereo unspecified) | > 100 | > 100 | > 100 | > 100 | > 100 | > 100 | > 100 | > 100 | > 100 | > 100 | > 100 | > 100 | > 100 | > 100 | > 100 | > 100 | > 100 | > 100

Reference: PubChem BioAssay (NCI)
